From PubChem BioAssay (NCI)
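Briefly, cells in 96-well plates were exposed to five compound concentrations for 48 h, and endpoints were estimated by linear interpolation. At the TGI there is no net growth.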

What was measured:
Experiment in all cases: NCI-60 cell line screen, 48 h
OVCAR-4 ovarian = tested on: OVCAR-4 ovarian
SNB-75 CNS = tested on: SNB-75 CNS
NCI-H522 lung = tested on: NCI-H522 lung
A549 NSCLC = tested on: A549 NSCLC
IGROV1 ovarian = tested on: IGROV1 ovarian
SW-620 colon = tested on: SW-620 colon
RXF 393 renal = tested on: RXF 393 renal
OVCAR-8 ovarian = tested on: OVCAR-8 ovarian
SN12C renal = tested on: SN12C renal
CCRF-CEM leukemia = tested on: CCRF-CEM leukemia
EKVX NSCLC = tested on: EKVX NSCLC
K-562 leukemia = tested on: K-562 leukemia
HCT-15 colon = tested on: HCT-15 colon
OVCAR-5 ovarian = tested on: OVCAR-5 ovarian
HL-60(TB) leukemia = tested on: HL-60(TB) leukemia
NCI-H460 lung = tested on: NCI-H460 lung
SK-OV-3 ovarian = tested on: SK-OV-3 ovarian
UO-31 renal = tested on: UO-31 renal
OVCAR-3 ovarian = tested on: OVCAR-3 ovarian
HCC-2998 colon = tested on: HCC-2998 colon

O=C1OC(c2ccc(Cl)cc2)(c2ccc(Cl)cc2)c2c1ccc1ccccc21
TGI (OVCAR-4 ovarian): > 100 µM | TGI (SNB-75 CNS): > 100 µM | TGI (NCI-H522 lung): > 100 µM | TGI (A549 NSCLC): > 100 µM | TGI (IGROV1 ovarian): > 100 µM | TGI (SW-620 colon): > 100 µM | TGI (RXF 393 renal): > 100 µM | TGI (OVCAR-8 ovarian): > 100 µM | TGI (SN12C renal): > 100 µM | TGI (CCRF-CEM leukemia): > 100 µM | TGI (EKVX NSCLC): > 100 µM | TGI (K-562 leukemia): > 100 µM | TGI (HCT-15 colon): > 100 µM | TGI (OVCAR-5 ovarian): > 100 µM | TGI (HL-60(TB) leukemia): > 100 µM | TGI (NCI-H460 lung): > 100 µM | TGI (SK-OV-3 ovarian): > 100 µM | TGI (UO-31 renal): > 100 µM | TGI (OVCAR-3 ovarian): > 100 µM | TGI (HCC-2998 colon): > 100 µM

COc1ccc(/C=N/n2cnc3c(c2=O)S/C(=C2/SC(=S)N(c4ccc(C)cc4)C2=O)N3c2ccccc2)cc1
TGI (OVCAR-4 ovarian): 94.1 µM | TGI (SNB-75 CNS): > 100 µM | TGI (NCI-H522 lung): > 100 µM | TGI (A549 NSCLC): > 100 µM | TGI (IGROV1 ovarian): > 100 µM | TGI (SW-620 colon): > 100 µM | TGI (RXF 393 renal): 35.8 µM | TGI (OVCAR-8 ovarian): > 100 µM | TGI (SN12C renal): > 100 µM | TGI (CCRF-CEM leukemia): > 100 µM | TGI (EKVX NSCLC): > 100 µM | TGI (K-562 leukemia): > 10 µM | TGI (HCT-15 colon): > 100 µM | TGI (OVCAR-5 ovarian): > 100 µM | TGI (HL-60(TB) leukemia): > 100 µM | TGI (NCI-H460 lung): > 100 µM | TGI (SK-OV-3 ovarian): > 100 µM | TGI (UO-31 renal): > 100 µM | TGI (OVCAR-3 ovarian): 74.2 µM | TGI (HCC-2998 colon): > 100 µM

COc1ccc(/C(Cl)=C(\C=O)c2ccccc2)cc1OC
TGI (OVCAR-4 ovarian): > 100 µM | TGI (SNB-75 CNS): 52.2 µM | TGI (NCI-H522 lung): 30.8 µM | TGI (A549 NSCLC): > 100 µM | TGI (IGROV1 ovarian): > 100 µM | TGI (SW-620 colon): > 100 µM | TGI (RXF 393 renal): 69 µM | TGI (OVCAR-8 ovarian): > 100 µM | TGI (SN12C renal): > 100 µM | TGI (CCRF-CEM leukemia): > 100 µM | TGI (EKVX NSCLC): > 100 µM | TGI (K-562 leukemia): > 100 µM | TGI (HCT-15 colon): > 100 µM | TGI (OVCAR-5 ovarian): > 100 µM | TGI (HL-60(TB) leukemia): 76.9 µM | TGI (NCI-H460 lung): > 100 µM | TGI (SK-OV-3 ovarian): > 100 µM | TGI (UO-31 renal): > 100 µM | TGI (OVCAR-3 ovarian): > 100 µM | TGI (HCC-2998 colon): > 100 µM

CCOC(=O)C1=NN(c2ccc(Cl)cc2)C2=CC(C)=NN(C)C(=S)N21
TGI (OVCAR-4 ovarian): > 100 µM | TGI (SNB-75 CNS): 94.7 µM | TGI (NCI-H522 lung): 46.9 µM | TGI (A549 NSCLC): > 100 µM | TGI (IGROV1 ovarian): > 100 µM | TGI (SW-620 colon): > 100 µM | TGI (RXF 393 renal): 47.3 µM | TGI (OVCAR-8 ovarian): > 100 µM | TGI (SN12C renal): > 100 µM | TGI (CCRF-CEM leukemia): > 100 µM | TGI (EKVX NSCLC): 81.9 µM | TGI (K-562 leukemia): > 100 µM | TGI (HCT-15 colon): > 100 µM | TGI (OVCAR-5 ovarian): > 100 µM | TGI (HL-60(TB) leukemia): > 100 µM | TGI (NCI-H460 lung): > 100 µM | TGI (SK-OV-3 ovarian): 94.4 µM | TGI (UO-31 renal): > 100 µM | TGI (OVCAR-3 ovarian): > 100 µM | TGI (HCC-2998 colon): > 100 µM

N/C(=N\N=C\c1cc2c(cc1Cl)OCO2)NO
TGI (OVCAR-4 ovarian): > 100 µM | TGI (SNB-75 CNS): > 100 µM | TGI (NCI-H522 lung): > 100 µM | TGI (A549 NSCLC): > 100 µM | TGI (IGROV1 ovarian): > 100 µM | TGI (SW-620 colon): > 100 µM | TGI (RXF 393 renal): > 100 µM | TGI (OVCAR-8 ovarian): > 100 µM | TGI (SN12C renal): > 100 µM | TGI (CCRF-CEM leukemia): > 100 µM | TGI (EKVX NSCLC): > 100 µM | TGI (K-562 leukemia): > 100 µM | TGI (HCT-15 colon): > 100 µM | TGI (OVCAR-5 ovarian): > 61.5 µM | TGI (HL-60(TB) leukemia): 41.7 µM | TGI (NCI-H460 lung): > 100 µM | TGI (SK-OV-3 ovarian): > 92.5 µM | TGI (UO-31 renal): 64.2 µM | TGI (OVCAR-3 ovarian): > 24.6 µM | TGI (HCC-2998 colon): 97.8 µM

C=CC[N+](CCO)(CCO)CCCCCCCCCCCCCCCCCC
TGI (OVCAR-4 ovarian): 16.4 µM | TGI (SNB-75 CNS): 7.55 µM | TGI (NCI-H522 lung): 13.5 µM | TGI (A549 NSCLC): 35 µM | TGI (IGROV1 ovarian): 3.78 µM | TGI (SW-620 colon): 22.2 µM | TGI (RXF 393 renal): 5.24 µM | TGI (OVCAR-8 ovarian): 59.5 µM | TGI (SN12C renal): 24 µM | TGI (CCRF-CEM leukemia): 3.76 µM | TGI (EKVX NSCLC): 47.7 µM | TGI (K-562 leukemia): 18.2 µM | TGI (HCT-15 colon): 41.4 µM | TGI (OVCAR-5 ovarian): 31.5 µM | TGI (HL-60(TB) leukemia): 2.51 µM | TGI (NCI-H460 lung): 19.2 µM | TGI (SK-OV-3 ovarian): 27.9 µM | TGI (UO-31 renal): 31.4 µM | TGI (OVCAR-3 ovarian): 27.1 µM | TGI (HCC-2998 colon): 10.6 µM
